The values that follow are results of earlier work, collected in US20050101563A1, “Method and compositions for the treatment and prevention of pain and inflammation” (Pharmacia Corporation, priority 2001, published 2005).

Data set [1] concerns human chondrocytes.
Data set [2] has as its system patients with knee osteoarthritis. The settings on record: 1500 mg/day, 3 years.
Data set [3] deals with Cox-2. The settings on record: enzyme inhibitory compounds of Ligustrum lucidum extracts.
Data set [4] concerns rats. The settings on record: orally administered; sponge implants in rats.
For data set [5] the following is noted: orally administered; rats.

Take `CC(=O)N[C@H]1C(O)O[C@H](CO)[C@@H](O)[C@@H]1O` (stereo partly drawn) [N-acetylglucosamine]: the “IL-1-beta-mediated activation of chondrocytes” value in data set [1] is on record as “prevent IL-1-beta-mediated activation of human chondrocytes”.
As for `N[C@H]1C(O)O[C@H](CO)[C@@H](O)[C@@H]1O.O=S(=O)(O)O` (stereo partly drawn) [glucosamine sulfate], the joint-space loss entry in data set [2] is “no significant joint-space loss”.
On to `CC1(C)CC[C@]2(C(=O)O)CC[C@]3(C)C(=CC[C@@H]4[C@@]5(C)CC[C@H](O)C(C)(C)[C@@H]5CC[C@]43C)[C@@H]2C1` [oleanic acid], for which, in data set [3], the “selectivity for the inhibition of Cox-2 versus Cox-1” value is listed as “not substantially more selective for the inhibition of Cox-2 than for Cox-1”.
For the compound `C[C@H]1[C@H](C)CC[C@]2(C(=O)O)CC[C@]3(C)C(=CC[C@@H]4[C@@]5(C)CC[C@H](O)C(C)(C)[C@@H]5CC[C@]43C)[C@H]12` [ursolic acid], the “selectivity for the inhibition of Cox-2 versus Cox-1” value in data set [3] was “not substantially more selective for the inhibition of Cox-2 than for Cox-1”.
For chondroitin sulfate, in data set [4], the granuloma formation entry is on record as “significantly decrease granuloma formation”. In addition, the tissue tropism entry in data set [5] is recorded as “tropism for cartilagineous tissues”.
